According to PMC12668308, “A Novel Antimalarial Agent that Inhibits Protein Synthesis in Plasmodium falciparum” (Angewandte Chemie (International Ed. in English), 2025):
“And” between values parts separate entries of the source, which are not always exact repeats. Identical values can stand only once.

What was measured:
3D7^Cas9 pfmdr1 G182S = format: cell-based, Plasmodium falciparum; settings: 3D7^Cas9 pfmdr1 G182S vs 3D7^WT
Procedure: ^[a] 72-h [^3H] hypoxanthhine incorporation assay; Data is expressed as mean±s.d.. The assay was performed in three independent biological experiments, each in biological duplicates.
P. falciparum asexual blood stage parasites were cultured in human red blood cells (RBC, Blutspende SRK, Zurich) at a hematocrit of 5% in RPMI 1640 medium. The RPMI 1640 medium (ThermoFisher Scientific #51800−043) was supplemented with the following: 24 mM NaHCO3 (pH 7.3, Sigma-Aldrich #31437−500G-R), 25 mM Hepes (Sigma-Aldrich #H4034−500G), 0.36 mM hypoxanthine (Sigma-Aldrich # H9377−25G), 100 µg mL^-1 neomycin (Sigma-Aldrich #N6386−100G) and 0.5% Albumax II (Thermo Fisher #11021−045). Additionally, 2 mM choline chloride (279 mg/L, Sigma-Aldrich #C7527−100G) was added to the culture to block the induction of sexual commitment as described. ^[31^] The RPMI 1640 medium and components were dissolved in water (Milli-Q purified), stirred for at least 3 h, and then sterile filtered (0.22 μm pore size) with a bottle top filter (Corning # 431118). Parasite cultures were maintained in an atmosphere of 3% O2, 4% CO2, and 93% N2 in air-tight chambers at 37 °C. The [^3H]-hypoxanthine incorporation assay was used to test compound activity in the specific parasite lines as described.^[32^] Briefly, compounds were dissolved in DMSO (10 mM) and diluted in a hypoxanthine-free culture medium. A limiting dilution was performed over a 64-fold range (6-step twofold dilution) in a 96-well plate in duplicates. For every starting concentration, a limiting dilution was performed over a 64-fold range (6-step twofold dilution) in a 96-well plate in two biological duplicates. Parasites were added at 100 µL to each well containing the compound to obtain a final parasitemia of 0.3% and haematocrit of 1.25%. The plates were incubated for 48 h before 0.25 µCi of [^3H]-hypoxanthine was added per well for an additional 24 h. Parasites were harvested on a glass-fiber filter with a Microbeta FilterMate cell harvester (Perkin Elmer, Waltham, USA) and radioactivity was counted using a MicroBeta2 liquid scintillation counter (Perkin Elmer, Waltham, US). The results were recorded, processed by subtraction of the mean background signal obtained from the uninfected RBC controls and expressed as percentage of untreated controls. The fifty percent inhibitory concentration (IC50) was calculated by using nonlinear, four parameter (variable slope) curve fitting as described ^[33^] after importing into GraphPad Prism (version 8.3.0).
The P. falciparum 3D7 wild type parasites in the ring stage were transfected as described.^[20] Infected RBCs collected from a 5 ml culture of synchronous ring stage parasites (5-6% parasitemia at ) were added to 250 µl of packed RBCs and were co-transfected with 50µg of Cas9 and 50 µg of donor plasmids using a Bio-Rad Gene Pulser Xcell Electroporation System (single exponential pulse, 310 V, 250 µF). 24 hours post-transfection, 5 nM WR99210 (MedChemExpress #HY-116387) was added to the culture medium for six days to select for gene-edited parasites, and henceforth parasites were maintained in normal culture medium until a stably propagating parasite population was obtained. After ~4 weeks post-transfection, stably propagating parasite population were obtained. The transgenic parasite line (3D7^pfmdr1 G182S) was cloned out using an established plaque assays via limiting dilution.^[35^] […]

[1] = system: 3-hydroxyacyl-[acyl-carrier-protein] dehydratase (W7K0B9); assay: iSPP profiling, P. falciparum lysate; format: binding; settings: 100 µM compound 34
Procedure: (§1) P. falciparum NF54 lysates were extracted as described in ^[26^] . The parasite asynchronous culture was extracted once 3-5% parasitemia was reached. Saponin lysis was done as described in 2.2.10. Once the parasite pellet was obtained, 2.5 volumes of ice-cold lysis buffer (50 mM Tris/HCl pH 7.5 (Avantor), 5% glycerol (Sigma-Aldrich), 150 mM NaCl (Carl Roth), 1.5 mM MgCl2 (Sigma-Aldrich), 1 mM DTT (Carl Roth), 0.8% IGEPAL CA-630 (Sigma-Aldrich), 1X Halt Protease and Phosphatase Inhibitor-Cocktails EDTA-free (Thermo Fisher Scientific)) was added to the parasite pellet. The lysate solution was subjected to three cycles of flash freeze-thaw with liquid nitrogen and ddH2O at RT. The lysates were centrifuged at 20,000 g for 20 minutes at 4 °C. The soluble protein fraction (supernatant) was collected and the protein content was quantified using the BCA assay (Pierce™ BCA Protein Assay Kit, Thermo Fisher Scientific). The lysate was stored at -80 °C until further use.
(§2) The P. falciparum lysate was thawed on ice and diluted to 0.8 mg/mL. The lysate was aliquoted, and each aliquot was incubated with either a vehicle control (DMSO), 34 (dissolved in DMSO), or varying concentrations of 31 (dissolved in DMSO) at 0.01 µM, 0.1 µM, 10 µM, 50 µM, and 100 µM. Subsequently, the samples were incubated at room temperature for 30 minutes using a rotating mixer. After distribution into a 96-well plate, the samples were treated with increasing concentrations of A.E.A. (v/v) ranging from 14% to 28% (14, 16, 18, 20, 22, 24, 26, and 28%). Following a 20-minute incubation at 37°C with shaking at 750 rpm, the samples were centrifuged at 4400 g for 35 minutes to remove precipitated proteins. The soluble fractions were then pooled in equal volumes into a single sample using the Bravo Automated Liquid Handling Platform. […]
(§3) The raw LFQ-DIA intensity values of biological replicates across all conditions were normalized to the median abundance using Excel. […] Dose-dependent curves were generated using normalized protein intensity values, expressed as a ratio to the vehicle control. […]

[2] = biological target: Phosphatidylinositol 4-kinase (W7K9N9) (Plasmodium falciparum, UniProt W7K9N9); assay: iSPP profiling, P. falciparum lysate; format: binding; settings: 100 µM compound 34
Chain of Phosphatidylinositol 4-kinase (W7K9N9) (W7K9N9 entry or part of it): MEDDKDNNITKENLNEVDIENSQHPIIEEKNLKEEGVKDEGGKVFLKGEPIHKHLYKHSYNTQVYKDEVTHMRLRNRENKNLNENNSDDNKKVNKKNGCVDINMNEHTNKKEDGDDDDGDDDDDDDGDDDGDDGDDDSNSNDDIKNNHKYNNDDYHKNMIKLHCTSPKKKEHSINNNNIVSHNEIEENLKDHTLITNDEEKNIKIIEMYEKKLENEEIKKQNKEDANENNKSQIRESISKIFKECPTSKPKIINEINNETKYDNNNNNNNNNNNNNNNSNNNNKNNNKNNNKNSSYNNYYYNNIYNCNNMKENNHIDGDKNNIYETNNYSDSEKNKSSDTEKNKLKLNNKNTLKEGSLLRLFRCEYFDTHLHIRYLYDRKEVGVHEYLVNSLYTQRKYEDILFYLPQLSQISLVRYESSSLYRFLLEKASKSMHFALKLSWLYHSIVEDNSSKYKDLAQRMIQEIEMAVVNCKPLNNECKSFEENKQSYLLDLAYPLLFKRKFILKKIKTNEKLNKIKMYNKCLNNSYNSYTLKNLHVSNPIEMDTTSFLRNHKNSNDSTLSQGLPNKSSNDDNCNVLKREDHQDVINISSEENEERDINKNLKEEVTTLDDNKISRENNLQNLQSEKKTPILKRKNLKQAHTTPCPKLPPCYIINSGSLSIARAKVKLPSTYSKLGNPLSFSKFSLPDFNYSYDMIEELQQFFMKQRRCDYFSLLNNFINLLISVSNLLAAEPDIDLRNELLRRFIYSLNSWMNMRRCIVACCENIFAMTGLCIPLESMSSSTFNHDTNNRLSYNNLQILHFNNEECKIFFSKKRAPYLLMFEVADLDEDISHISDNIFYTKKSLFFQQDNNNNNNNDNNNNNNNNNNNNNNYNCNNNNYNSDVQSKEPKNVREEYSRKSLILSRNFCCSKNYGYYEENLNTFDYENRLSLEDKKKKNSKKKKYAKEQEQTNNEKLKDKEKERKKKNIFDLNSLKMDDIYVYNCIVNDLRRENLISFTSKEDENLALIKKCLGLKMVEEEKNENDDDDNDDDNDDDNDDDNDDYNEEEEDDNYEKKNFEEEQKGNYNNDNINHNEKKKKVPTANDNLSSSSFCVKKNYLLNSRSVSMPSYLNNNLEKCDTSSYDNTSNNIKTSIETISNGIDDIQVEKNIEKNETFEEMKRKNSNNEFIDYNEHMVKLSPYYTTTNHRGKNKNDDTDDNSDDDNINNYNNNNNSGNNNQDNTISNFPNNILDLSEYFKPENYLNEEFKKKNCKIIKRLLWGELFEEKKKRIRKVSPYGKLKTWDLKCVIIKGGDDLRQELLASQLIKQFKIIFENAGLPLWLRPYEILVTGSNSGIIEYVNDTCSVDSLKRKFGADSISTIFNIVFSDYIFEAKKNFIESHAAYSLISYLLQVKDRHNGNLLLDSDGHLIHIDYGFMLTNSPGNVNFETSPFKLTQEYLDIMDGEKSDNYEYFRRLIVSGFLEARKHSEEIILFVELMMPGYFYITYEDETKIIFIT
Procedure: as §1, §2, §3

[3] = biological target: Aquaglyceroporin (W7K5E1) (Plasmodium falciparum, UniProt Q8II36); assay: iSPP profiling, P. falciparum lysate; format: binding; settings: 100 µM compound 34
Chain of Aquaglyceroporin (W7K5E1) (Q8II36 whole entry, one chain of several): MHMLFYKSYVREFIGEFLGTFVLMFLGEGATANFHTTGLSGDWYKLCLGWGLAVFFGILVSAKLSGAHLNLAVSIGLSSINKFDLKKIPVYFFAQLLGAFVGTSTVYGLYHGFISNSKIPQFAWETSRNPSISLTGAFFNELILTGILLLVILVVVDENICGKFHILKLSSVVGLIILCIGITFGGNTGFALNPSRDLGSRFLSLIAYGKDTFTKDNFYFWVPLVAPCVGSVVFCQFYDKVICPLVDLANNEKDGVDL
Procedure: as §1, §2, §3

Compound | IC50 fold shift relative to 3D7^WT strain (3D7^Cas9 pfmdr1 G182S) | log2FC [1] | log2FC [2] | log2FC [3]
CN1CCN(Cc2ccc(O)c(NC(=O)c3cccc(Oc4cc(C(F)(F)F)ccn4)c3)c2)CC1 [Compound 31, N-(2-hydroxy-5-((4-methylpiperazin-1-yl)methyl)phenyl)-3-((4-(trifluoromethyl)pyridin-2-yl)oxy)benzamide] | 7 and 6.6 | – | – | –
O=C(Nc1cc(CN2CCOCC2)ccc1F)c1cccc(Oc2cc(C(F)(F)F)ccn2)c1 [Compound 34, N-(2-Fluoro-5-(morpholinomethyl)phenyl)-3-((4-(trifluoromethyl)pyridin-2-yl)oxy)benzamide] | – | 0.431 | 0.5024 | 0.4199
